pIC50: −log10 of the molar value. Where a name gives a salt, the structure may show the parent alone.
These molecules were tested against ROCK2 (Homo sapiens, UniProt O75116) (assay: ROCK2 kinase inhibition assay (LABCHIP 3000 Reader, FITC peptide substrate)). Settings: not given.
Chain of ROCK2 (O75116 whole entry, species assumed): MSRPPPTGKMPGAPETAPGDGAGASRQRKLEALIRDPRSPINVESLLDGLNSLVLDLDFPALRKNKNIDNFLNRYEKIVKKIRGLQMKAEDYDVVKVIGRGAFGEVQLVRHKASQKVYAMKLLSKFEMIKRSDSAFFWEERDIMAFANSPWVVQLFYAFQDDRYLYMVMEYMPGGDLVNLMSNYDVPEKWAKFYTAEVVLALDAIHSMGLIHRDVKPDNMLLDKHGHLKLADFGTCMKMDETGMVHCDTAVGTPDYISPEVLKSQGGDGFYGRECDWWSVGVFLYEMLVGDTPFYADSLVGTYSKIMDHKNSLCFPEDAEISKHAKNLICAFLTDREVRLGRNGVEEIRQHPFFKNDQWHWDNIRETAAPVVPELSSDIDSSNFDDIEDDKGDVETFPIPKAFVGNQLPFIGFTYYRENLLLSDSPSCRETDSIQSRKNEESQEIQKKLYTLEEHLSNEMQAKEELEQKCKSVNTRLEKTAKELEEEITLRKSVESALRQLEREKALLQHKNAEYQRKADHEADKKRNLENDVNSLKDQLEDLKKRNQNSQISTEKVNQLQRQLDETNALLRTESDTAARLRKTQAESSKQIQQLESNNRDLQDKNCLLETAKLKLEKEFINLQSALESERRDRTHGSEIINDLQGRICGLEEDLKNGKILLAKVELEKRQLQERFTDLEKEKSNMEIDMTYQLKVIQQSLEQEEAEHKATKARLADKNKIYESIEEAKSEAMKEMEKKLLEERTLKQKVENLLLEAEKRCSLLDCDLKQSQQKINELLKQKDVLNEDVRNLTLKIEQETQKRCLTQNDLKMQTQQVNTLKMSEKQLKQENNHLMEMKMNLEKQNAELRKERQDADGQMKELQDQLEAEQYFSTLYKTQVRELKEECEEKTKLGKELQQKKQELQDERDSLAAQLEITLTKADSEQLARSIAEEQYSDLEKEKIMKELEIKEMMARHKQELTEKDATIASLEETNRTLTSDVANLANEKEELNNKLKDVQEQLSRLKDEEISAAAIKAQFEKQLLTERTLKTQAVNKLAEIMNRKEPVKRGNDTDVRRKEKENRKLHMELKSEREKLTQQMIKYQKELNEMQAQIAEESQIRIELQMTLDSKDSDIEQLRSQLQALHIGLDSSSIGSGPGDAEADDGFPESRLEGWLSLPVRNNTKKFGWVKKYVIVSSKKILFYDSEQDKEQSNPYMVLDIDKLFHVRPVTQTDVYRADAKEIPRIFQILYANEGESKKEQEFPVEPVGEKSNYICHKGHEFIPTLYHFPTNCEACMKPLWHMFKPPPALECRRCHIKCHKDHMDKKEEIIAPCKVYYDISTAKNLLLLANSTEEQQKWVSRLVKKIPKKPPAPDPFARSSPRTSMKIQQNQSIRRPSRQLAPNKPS
Work on `CC(C)(O)COc1ccc2c(C(=O)NC3CC4(C3)CC(Oc3nc(OCCN)ncc3C(N)=O)C4)cnn2c1C1CC1` (stereo not drawn) [Example 306, N-(6-((2-(2-aminoethoxy)-5-carbamoylpyrimidin-4-yl)oxy)spiro[3.3]heptan-2-yl)-7-cyclopropyl-6-(2-hydroxy-2-methylpropoxy)pyrazolo[1,5-a]pyridine-3-carboxamide] yielded a pIC50 of 6.60 to 7.30. `Cc1noc(C)c1-c1cc(C#N)cc(C(=O)N[C@H]2CC3(C2)C[C@H](Oc2ncccc2C(N)=O)C3)c1` (stereo partly drawn) [Example 190, 2-((aR)-6-(3-cyano-5-(3,5-dimethylisoxazol-4-yl)benzamido)spiro[3.3]heptan-2-yl)oxy)nicotinamide, trifluoroacetate] was tested, and the pIC50 was 7.30 to 8.30. `[H][C@]1(Oc2ccccc2C(N)=O)C[C@@]2(C[C@H](NC(=O)c3cnn4c(C5CC5)c(OCC(C)(C)O)ccc34)C2)C1` (stereo partly drawn) [Example 15, N-((aR)-6-(2-carbamoylphenoxy)spiro[3.3]heptan-2-yl)-7-cyclopropyl-6-(2-hydroxy-2-methylpropoxy)pyrazolo[1,5-a]pyridine-3-carboxamide] was tested, and the pIC50 was over 8.30. For `Cn1nc(C(=O)N[C@H]2CC3(C2)C[C@H](Oc2ncccc2C(N)=O)C3)cc1OCCC(F)(F)F` (stereo partly drawn) [Example 91, 2-((aR 6-(1-methyl-5-(3,3,3-trifluoropropoxy)-1H-pyrazole-3-carboxamido)spiro[3.3]heptan-2-yl)oxy) nicotinamide, trifluoroacetate], the pIC50 was 6.60 to 7.30. In the case of `COc1ccc(C(N)=O)c(OC2CC3(CC(NC(=O)c4cnn5c(C6CC6)c(OCC(C)(C)O)ccc45)C3)C2)c1` (stereo not drawn) [Example 211, N-(6-(2-carbamoyl-5-methoxyphenoxy)spiro[3.3]heptan-2-yl)-7-cyclopropyl-6-(2-hydroxy-2-methylpropoxy)pyrazolo[1,5-a]pyridine-3-carboxamide], the pIC50 was over 8.30. Work on `N#Cc1ccc(-c2ccc(C(=O)N[C@H]3CC4(C3)C[C@H](Oc3ncccc3C(N)=O)C4)cn2)cc1` (stereo partly drawn) [Example 161, N-((aR)-6-((3-carbamoylpyridin-2-yl)oxy)spiro[3.3]heptan-2-yl)-6-(4-cyanophenyl) nicotinamide] yielded a pIC50 of 7.30 to 8.30. `CS(=O)(=O)CCCOc1ccc2c(C(=O)N[C@H]3CC4(C3)C[C@H](Oc3ncccc3C(N)=O)C4)cnn2c1C1CC1` (stereo partly drawn) [Example 352, N-((aR)-6-((3-carbamoylpyridin-2-yl)oxy)spiro[3.3]heptan-2-yl)-7-cyclopropyl-6-(3-(methylsulfonyl)propoxy)pyrazolo[1,5-a]pyridine-3-carboxamide] was tested, and the pIC50 was 7.30 to 8.30. In the case of `CC(C)Cn1cc(-c2cc(C#N)cc(C(=O)N[C@H]3CC4(C3)C[C@H](Oc3ncccc3C(N)=O)C4)c2)cn1` (stereo partly drawn) [Example 187, 2-((aR)-6-(3-cyano-5-(1-isobutyl-1H-pyrazol-4-yl)benzamido)spiro [3.3]heptan-2-yl)oxy)nicotinamide, trifluoroacetate], the pIC50 was over 8.30. Work on `NC(=O)c1cccnc1O[C@H]1CC2(C[C@H](NC(=O)c3cnc4cc(NCC(F)F)ccn34)C2)C1` (stereo partly drawn) [Example 358, N-((aR)-6-((3-carbamoylpyridin-2-yl)oxy)spiro[3.3]heptan-2-yl)-7-((2,2-difluoroethyl)amino)imidazo[1,2-a]pyridine-3-carboxamide] yielded a pIC50 of 7.30 to 8.30. `NC(=O)c1cccnc1O[C@H]1CC2(C[C@H](NC(=O)c3cnn4cc(N5CC6(COC6)C5)ccc34)C2)C1` (stereo partly drawn) [Example 349, N-((aR)-6-((3-carbamoylpyridin-2-yl)oxy)spiro[3.3]heptan-2-yl)-6-(2-oxa-6-azaspiro[3.3]heptan-6-yl)pyrazolo[1,5-a]pyridine-3-carboxamide] showed a pIC50 of 7.30 to 8.30. For `[H][C@]1(Oc2ncccc2C(N)=O)C[C@@]2(C[C@H](NC(=O)c3cnc4cc(Cl)ccn34)C2)C1` (stereo partly drawn) [Example 361, N-((aR)-6-((3-carbamoylpyridin-2-yl)oxy)spiro[3.3]heptan-2-yl)-7-chloroimidazo[1,2-a]pyridine-3-carboxamide], the pIC50 was 6.60 to 7.30. For `Cc1c(-c2cc(C#N)cc(C(=O)N[C@H]3CC4(C3)C[C@H](Oc3ncccc3C(N)=O)C4)c2)cnn1C` (stereo partly drawn) [Example 185, 2-(((aR)-6-(3-cyano-5-(1,5-dimethyl-1H-pyrazol-4-yl)benzamido)spiro[3.3]heptan-2-yl)oxy)nicotinamide, trifluoroacetate], the pIC50 was over 8.30. For `NC(=O)c1cccnc1O[C@H]1CC2(C[C@H](NC(=O)c3cccc(Cn4ccnc4)c3)C2)C1` (stereo partly drawn) [Example 141, 2-(((aR)-6-(3-((1H-imidazol-1-yl)methyl)benzamido)spiro[3.3]heptan-2-yl)oxy) nicotinamide, trifluoroacetate], the pIC50 was 5.60 to 6.60. For `CC(C)(O)COc1ccc2c(C(=O)NC3CC4(C3)CC(Oc3c(F)cc(F)cc3C(N)=O)C4)cnn2c1C1CC1` (stereo not drawn) [Example 269, N-(6-(2-carbamoyl-4,6-difluorophenoxy)spiro[3.3]heptan-2-yl)-7-cyclopropyl-6-(2-hydroxy-2-methylpropoxy)pyrazolo[1,5-a]pyridine-3-carboxamide], the pIC50 was 6.60 to 7.30. `[H][C@]1(Oc2ncccc2C(N)=O)C[C@@]2(C[C@H](NC(=O)c3cn4nc(Cl)ccc4n3)C2)C1` (stereo partly drawn) [Example 62, N-((aR)-6-((3-carbamoylpyridin-2-yl)oxy)spiro[3.3]heptan-2-yl)-6-chloroimidazo[1,2-b]pyridazine-2-carboxamide] showed a pIC50 of 5.60 to 6.60. `COc1ccc(NC(=O)N[C@H]2CC3(C2)C[C@H](Oc2ccccc2C(N)=O)C3)cc1` (stereo partly drawn) [Example 40, 2-[((aR)-6-{[(4-methoxyphenyl)carbamoyl]amino}spiro[3.3]heptan-2-yl)oxy]benzamide] was tested, and the pIC50 was 6.60 to 7.30.

Same assay, conditions: read-out: ROCK2 Activity (ROCK2 IC50); 5 μM ATP, 1.5 μM peptide substrate, pH 7.5
Work on `Cn1cc(-c2ccc3c(C(=O)NC4CC5(C4)CC(Oc4ncccc4C(N)=O)C5)nc(C(F)(F)F)n3c2)cn1` [Example 433, N-((aR)-6-((3-carbamoylpyridin-2-yl)oxy)spiro[3.3]heptan-2-yl)-6-(1-methyl-1H-pyrazol-4-yl)-3-(trifluoromethyl)imidazo[1,5-a]pyridine-1-carboxamide] yielded a pIC50 of over 8.30. In the case of “2-(((aR)-6-(1- (pyridin-2-yl)-5- (trifluoromethyl)- 1H-pyrazole-4- carboxamido) spiro[3.3]heptan-2- yl)oxy) nicotinamide [Example 129]”, the pIC50 was 5.60 to 6.60. `NC(=O)c1cccnc1OC1CC2(CC(NC(=O)c3nc(C(F)F)n4cc(N5CCOC(CCO)C5)ccc34)C2)C1` [Example 451, N-((aR)-6-((3-carbamoylpyridin-2-yl)oxy)spiro[3.3]heptan-2-yl)-3-(difluoromethyl)-6-(2-(2-hydroxyethyl)morpholino)imidazo[1,5-a]pyridine-1-carboxamide] was tested, and the pIC50 was 7.30 to 8.30. In the case of `NC(=O)c1cccnc1OC1CC2(CC(NC(=O)c3nc(C(F)F)n4cc(N5CCN[C@H](CO)C5)ccc34)C2)C1` (stereo partly drawn) [Example 455, N-((aR)-6-((3-carbamoylpyridin-2-yl)oxy)spiro[3.3]heptan-2-yl)-3-(difluoromethyl)-6-((S)-3-(hydroxymethyl)piperazin-1-yl)imidazo[1,5-a]pyridine-1-carboxamide], the pIC50 was 7.30 to 8.30. Work on `CC(C)(C#N)n1nc(C(=O)NC2CC3(C2)CC(Oc2ncccc2C(N)=O)C3)c2ccc(Br)cc21` [Example 403, 6-bromo-N-((aR)-6-((3-carbamoylpyridin-2-yl)oxy)spiro[3.3]heptan-2-yl)-1-(2-cyanopropan-2-yl)-1H-indazole-3-carboxamide, TFA] yielded a pIC50 of 7.30 to 8.30.

— patent US10829501B2 (BRISTOL-MYERS SQUIBB COMPANY, priority 2016, dated 2020)
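Note: rho kinase reaction read by separating phosphorylated from unphosphorylated peptide on chip, with inhibition of kinase activity computed per concentration across a dose-response series.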
